Data published in patent US8614327B2 (Vertex Pharmaceuticals Incorporated, priority 2004, dated 2013).

Molecular target: T1, ΔF508-CFTR (Homo sapiens, UniProt P13569, DEL508-508)
T1 construct: expressed in transfected cells
Experiment: Membrane potential optical (FRET/VIPR) assay, identification of potentiator compounds
Format: cell-based
Details: Table 3, assay not given; for % Activity: relative efficacy
How it was run: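 Double-addition potentiator screen: compound delivered in gluconate-substituted Cl^--free medium, membrane potential followed via CC2-DMPE/DiSBAC2(3) FRET on VIPR. Cells were ΔF508-CFTR-expressing NIH3T3 mouse fibroblasts, held 2 h at 37° C. then 24 h at 27° C. before assay.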

T1 sequence (P13569 with tags, fused parts or gaps DEL508-508): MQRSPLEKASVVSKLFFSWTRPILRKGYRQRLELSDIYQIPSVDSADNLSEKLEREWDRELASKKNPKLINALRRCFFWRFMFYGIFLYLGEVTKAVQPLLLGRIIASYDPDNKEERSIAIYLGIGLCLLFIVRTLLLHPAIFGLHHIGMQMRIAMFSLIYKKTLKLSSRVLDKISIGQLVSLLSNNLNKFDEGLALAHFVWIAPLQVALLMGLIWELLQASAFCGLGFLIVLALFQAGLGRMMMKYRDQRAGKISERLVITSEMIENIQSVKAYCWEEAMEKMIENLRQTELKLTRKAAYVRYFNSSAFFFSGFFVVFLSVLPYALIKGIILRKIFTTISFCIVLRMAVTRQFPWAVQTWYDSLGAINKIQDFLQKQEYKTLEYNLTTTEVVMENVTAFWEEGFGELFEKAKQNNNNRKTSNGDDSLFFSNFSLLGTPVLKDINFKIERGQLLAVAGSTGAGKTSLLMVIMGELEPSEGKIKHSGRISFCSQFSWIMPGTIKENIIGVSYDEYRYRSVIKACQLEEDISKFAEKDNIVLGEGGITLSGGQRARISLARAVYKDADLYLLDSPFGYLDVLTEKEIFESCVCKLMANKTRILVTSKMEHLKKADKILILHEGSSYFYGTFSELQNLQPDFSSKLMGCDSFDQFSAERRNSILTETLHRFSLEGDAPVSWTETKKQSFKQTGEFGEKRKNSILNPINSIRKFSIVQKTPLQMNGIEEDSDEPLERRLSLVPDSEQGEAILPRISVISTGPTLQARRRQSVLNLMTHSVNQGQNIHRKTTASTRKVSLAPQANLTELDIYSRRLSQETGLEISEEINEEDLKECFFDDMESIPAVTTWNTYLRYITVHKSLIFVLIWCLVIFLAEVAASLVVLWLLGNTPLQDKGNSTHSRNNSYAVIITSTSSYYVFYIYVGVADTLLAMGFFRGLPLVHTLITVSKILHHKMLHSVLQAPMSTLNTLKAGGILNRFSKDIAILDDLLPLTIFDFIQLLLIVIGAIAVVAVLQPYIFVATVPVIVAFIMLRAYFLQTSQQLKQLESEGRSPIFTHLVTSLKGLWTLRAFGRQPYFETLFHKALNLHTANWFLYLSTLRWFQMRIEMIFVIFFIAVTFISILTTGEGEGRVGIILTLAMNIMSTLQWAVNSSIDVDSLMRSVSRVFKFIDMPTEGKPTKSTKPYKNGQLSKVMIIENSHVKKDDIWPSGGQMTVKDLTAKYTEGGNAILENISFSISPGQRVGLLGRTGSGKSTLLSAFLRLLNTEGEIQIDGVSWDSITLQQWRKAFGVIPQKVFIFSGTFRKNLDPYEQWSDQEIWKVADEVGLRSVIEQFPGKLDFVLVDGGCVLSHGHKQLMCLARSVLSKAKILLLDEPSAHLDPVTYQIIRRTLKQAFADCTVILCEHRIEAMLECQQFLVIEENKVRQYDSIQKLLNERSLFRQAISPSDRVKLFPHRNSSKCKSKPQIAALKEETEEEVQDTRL

Row | Structure (SMILES) | EC50 | % Activity
1 | O=C(Nc1ccc(N2CCC(CO)CC2)cc1C(F)(F)F)c1c[nH]c2ccccc2c1=O [Compound 668, N-[4-[4-(hydroxymethyl)-1-piperidyl]-2-(trifluoromethyl)phenyl]-4-oxo-1H-quinoline-3-carboxamide] | < 10 µM | ++ (between 25% to 100%)
2 | O=C(Nc1ccc(Oc2cccnc2)cc1)c1c[nH]c2ccccc2c1=O [Compound 614, 4-oxo-N-[4-(3-pyridyloxy)phenyl]-1H-quinoline-3-carboxamide] | < 10 µM | ++ (between 25% to 100%)
3 | O=C(Nc1ccc2ccccc2c1)c1c[nH]c2ccccc2c1=O [Compound 481, N-(2-naphthyl)-4-oxo-1H-quinoline-3-carboxamide] | < 10 µM | ++ (between 25% to 100%)
4 | CN(C)[C@@H]1CCN(c2ccc(NC(=O)c3c[nH]c4ccccc4c3=O)c(C(F)(F)F)c2)C1 [Compound 534, (R)-N-(4-(3-(dimethylamino)pyrrolidin-1-yl)-2-(trifluoromethyl)phenyl)-4-oxo-1,4-dihydroquinoline-3-carboxamide] | < 10 µM | ++ (between 25% to 100%)
5 | Cc1cc(C)c(NC(=O)c2c[nH]c3ccccc3c2=O)c(C)c1 [Compound 50, 4-oxo-N-(2,4,6-trimethylphenyl)-1H-quinoline-3-carboxamide] | < 10 µM | ++ (between 25% to 100%)
6 | O=C(Nc1ccc(N2CCC[C@H]2CO)cc1C(F)(F)F)c1c[nH]c2ccccc2c1=O [Compound 634, (S)-N-(4-(2-(hydroxymethyl)pyrrolidin-1-yl)-2-(trifluoromethyl)phenyl)-4-oxo-1,4-dihydroquinoline-3-carboxamide] | < 10 µM | ++ (between 25% to 100%)
7 | O=C(Nc1ccc(Sc2ccccc2)cc1)c1c[nH]c2ccccc2c1=O [Compound 470, 4-oxo-N-(4-phenylsulfanylphenyl)-1H-quinoline-3-carboxamide] | < 10 µM | ++ (between 25% to 100%)
8 | O=C(Nc1cccc(-c2cccs2)c1)c1c[nH]c2ccccc2c1=O [Compound 549, 4-oxo-N-[3-(2-thienyl)phenyl]-1H-quinoline-3-carboxamide] | < 10 µM | ++ (between 25% to 100%)
9 | CCOc1cccc2c(=O)c(C(=O)Nc3cc(O)c(C(C)(C)C)cc3F)c[nH]c12 [Compound 526, 8-ethoxy-N-(2-fluoro-5-hydroxy-4-tert-butyl-phenyl)-4-oxo-1H-quinoline-3-carboxamide] | 10 to 25 µM | + (<25%)
10 | CC(C)(C)OC(=O)NCc1cc(NC(=O)c2c[nH]c3ccccc3c2=O)ccc1C(C)(C)C [Compound 465, [5-[(4-oxo-1H-quinolin-3-yl)carbonylamino]-2-tert-butyl-phenyl]methylaminoformic acid tert-butyl ester] | < 10 µM | ++ (between 25% to 100%)
11 | CCOc1ccc2[nH]cc(C(=O)Nc3cc(O)c(C(C)(C)C)cc3C(C)(C)C)c(=O)c2c1 [Compound 524, 6-ethoxy-N-(5-hydroxy-2,4-ditert-butyl-phenyl)-4-oxo-1H-quinoline-3-carboxamide] | < 10 µM | ++ (between 25% to 100%)
12 | O=C(Nc1ccc2c(c1)NCC2)c1c[nH]c2ccccc2c1=O [Compound 258, N-Indolin-6-yl-4-oxo-1H-quinoline-3-carboxamide] | < 10 µM | ++ (between 25% to 100%)
13 | Cc1cccc2[nH]cc(C(=O)Nc3ccc(N4CCC(C)(C)C4)cc3C(F)(F)F)c(=O)c12 [Compound 578, N-[4-(3,3-dimethylpyrrolidin-1-yl)-2-(trifluoromethyl)phenyl]-5-methyl-4-oxo-1H-quinoline-3-carboxamide] | < 10 µM | ++ (between 25% to 100%)
14 | CCOC(=O)[C@H]1CCCN(c2ccc(NC(=O)c3c[nH]c4ccccc4c3=O)c(C(F)(F)F)c2)C1 [Compound 660, (S)-ethyl 1-(4-(4-oxo-1,4-dihydroquinoline-3-carboxamido)-3-(trifluoromethyl)phenyl)piperidine-3-carboxylate] | < 10 µM | ++ (between 25% to 100%)
15 | CC(C)(C)CC(=O)Nc1ccc(C(C)(C)C)c(NC(=O)c2c[nH]c3ccccc3c2=O)c1 [Compound 196, N-[5-(3,3-dimethylbutanoylamino)-2-tert-butyl-phenyl]-4-oxo-1H-quinoline-3-carboxamide] | < 10 µM | ++ (between 25% to 100%)
16 | O=C(Nc1cc(O)c(Cl)cc1F)c1c[nH]c2ccccc2c1=O [Compound 695, N-(4-chloro-2-fluoro-5-hydroxy-phenyl)-4-oxo-1H-quinoline-3-carboxamide] | < 10 µM | ++ (between 25% to 100%)
17 | Cc1cccc2[nH]cc(C(=O)Nc3ccc(N4CCC[C@H]4C)cc3C(F)(F)F)c(=O)c12 [Compound 697, (R)-5-methyl-N-(4-(2-methylpyrrolidin-1-yl)-2-(trifluoromethyl)phenyl)-4-oxo-1,4-dihydroquinoline-3-carboxamide] | < 10 µM | ++ (between 25% to 100%)
18 | Cc1cccc2[nH]cc(C(=O)Nc3ccc(N4[C@H](C)CC[C@H]4C)cc3C(F)(F)F)c(=O)c12 [Compound 539, N-(4-((2R,5R)-2,5-dimethylpyrrolidin-1-yl)-2-(trifluoromethyl)phenyl)-5-methyl-4-oxo-1,4-dihydroquinoline-3-carboxamide] | < 10 µM | ++ (between 25% to 100%)
19 | O=C(Nc1cc(O)cc(C(F)(F)F)c1)c1c[nH]c2ccccc2c1=O [Compound 563, N-[3-hydroxy-5-(trifluoromethyl)phenyl]-4-oxo-1H-quinoline-3-carboxamide] | < 10 µM | ++ (between 25% to 100%)
20 | CCOc1ccccc1-c1ccc(CNC(=O)OC(C)(C)C)cc1NC(=O)c1c[nH]c2ccccc2c1=O [Compound 304, {2′-Ethoxy-2-[(4-oxo-1,4-dihydroquinoline-3-carbonyl)-amino]-biphenyl-4-ylmethyl}-carbamic acid tert-butyl ester] | < 10 µM | ++ (between 25% to 100%)
21 | Cn1cnnc1-c1ccc(NC(=O)c2c[nH]c3ccccc3c2=O)cc1 [Compound 301, N-[4-(4-methyl-4H-1,2,4-triazol-3-yl)phenyl]-4-oxo-1H-quinoline-3-carboxamide] | 25 to 60 µM | + (<25%)

Second part, the molecule after the results:

Row | EC50 | % Activity | Structure (SMILES)
22 | < 10 µM | ++ (between 25% to 100%) | CC(C)(C)c1ccccc1NC(=O)c1c[nH]c2ccccc2c1=O [Compound 90, 4-oxo-N-(2-tert-butylphenyl)-1H-quinoline-3-carboxamide]
23 | < 10 µM | ++ (between 25% to 100%) | CC(C)(C)c1ccc(NC(=O)c2c[nH]c3ccccc3c2=O)c(Cl)c1 [Compound 362, N-(2-chloro-4-tert-butyl-phenyl)-4-oxo-1H-quinoline-3-carboxamide]
24 | < 10 µM | +++ (>100%) | CCOc1cccc(-c2ccccc2NC(=O)c2c[nH]c3ccccc3c2=O)c1 [Compound 306, N-[2-(3-ethoxyphenyl)phenyl]-4-oxo-1H-quinoline-3-carboxamide]
25 | < 10 µM | ++ (between 25% to 100%) | COc1ccc(C(C)(C)C)cc1NC(=O)c1c[nH]c2ccccc2c1=O [Compound 211, N-(2-methoxy-5-tert-butyl-phenyl)-4-oxo-1H-quinoline-3-carboxamide]
26 | < 10 µM | ++ (between 25% to 100%) | O=C(Nc1cccc(Cl)c1)c1c[nH]c2ccccc2c1=O [Compound 370, N-(3-chlorophenyl)-4-oxo-1H-quinoline-3-carboxamide]
27 | 10 to 25 µM | ++ (between 25% to 100%) | O=C(Nc1ccccc1-c1ccc(CO)cc1)c1c[nH]c2ccccc2c1=O [Compound 302, N-[2-[4-(hydroxymethyl)phenyl]phenyl]-4-oxo-1H-quinoline-3-carboxamide]
28 | – | ++ (between 25% to 100%) | CCc1ccc(N)cc1NC(=O)c1c[nH]c2ccccc2c1=O [Compound 282, N-(5-amino-2-ethyl-phenyl)-4-oxo-1H-quinoline-3-carboxamide]
29 | < 10 µM | ++ (between 25% to 100%) | CCc1ccccc1NC(=O)c1c[nH]c2ccccc2c1=O [Compound 72, N-(2-ethylphenyl)-4-oxo-1H-quinoline-3-carboxamide]
30 | < 10 µM | ++ (between 25% to 100%) | CC1(c2ccc(NC(=O)c3c[nH]c4ccccc4c3=O)cc2)COC1 [Compound 523, N-[4-(3-methyloxetan-3-yl)phenyl]-4-oxo-1H-quinoline-3-carboxamide]
31 | < 10 µM | ++ (between 25% to 100%) | O=C(Nc1ccccc1-c1cccc(Cl)c1Cl)c1c[nH]c2ccccc2c1=O [Compound 171, N-[2-(2,3-dichlorophenyl)phenyl]-4-oxo-1H-quinoline-3-carboxamide]
32 | < 10 µM | ++ (between 25% to 100%) | O=C(Nc1ccccc1-c1ccc(C(F)(F)F)cc1)c1c[nH]c2ccccc2c1=O [Compound 366, 4-oxo-N-[2-[4-(trifluoromethyl)phenyl]phenyl]-1H-quinoline-3-carboxamide]
33 | < 10 µM | ++ (between 25% to 100%) | CCOc1ccccc1NC(=O)c1c[nH]c2ccccc2c1=O [Compound 380, N-(2-ethoxyphenyl)-4-oxo-1H-quinoline-3-carboxamide]
34 | < 10 µM | ++ (between 25% to 100%) | C=Cc1ccc(NC(=O)c2c[nH]c3ccccc3c2=O)cc1 [Compound 452, 4-oxo-N-(4-vinylphenyl)-1H-quinoline-3-carboxamide]
35 | 25 to 60 µM | + (<25%) | Cc1ccc(C#N)c(NC(=O)c2c[nH]c3ccccc3c2=O)c1 [Compound 89, N-(2-cyano-5-methyl-phenyl)-4-oxo-1H-quinoline-3-carboxamide]
36 | < 10 µM | ++ (between 25% to 100%) | Cc1ccc(NC(=O)c2c[nH]c3ccccc3c2=O)cc1C [Compound 246, N-(3,4-dimethylphenyl)-4-oxo-1H-quinoline-3-carboxamide]
